Assay results as given in the NIST ThermoML archive (doi:10.1016/j.fluid.2018.09.026).
Values joined by “and” are separate entries in the source; they are usually repeats but may differ in a detail not shown here. Equal values may be shown once.

Details: Liquid; for mass density: Vibrating tube method; for viscosity: Vibrating wire viscometry

OCCOCCOCCO [triethylene glycol]
Details	mass density [kg/m3]	viscosity
283.15 K, 100 kPa	1130.8	–
283.15 K, 660 kPa	1131	–
283.15 K, 1150 kPa	1131.2	–
283.15 K, 1570 kPa	1131.4	–
283.15 K, 2090 kPa	1131.6	–
283.15 K, 3090 kPa	1132	–
283.15 K, 5060 kPa	1132.9	–
283.15 K, 6940 kPa	1133.6	–
283.15 K, 10020 kPa	1134.9	–
283.15 K, 14850 kPa	1136.9	–
283.15 K, 19830 kPa	1138.9	–
283.15 K, 24700 kPa	1140.8	–
283.15 K, 29600 kPa	1142.7	–
283.15 K, 34510 kPa	1144.6	–
283.15 K, 39360 kPa	1146.4	–
283.15 K, 44290 kPa	1148.2	–
283.15 K, 49180 kPa	1150	–
283.15 K, 54110 kPa	1151.7	–
283.15 K, 58970 kPa	1153.4	–
283.15 K, 63860 kPa	1155.1	–
283.15 K, 68790 kPa	1156.8	–
293.15 K, 100 kPa	1122.9	–
293.15 K, 640 kPa	1123.1	–
293.15 K, 1090 kPa	1123.4	–
293.15 K, 1600 kPa	1123.6	–
293.15 K, 2140 kPa	1123.8	–
293.15 K, 3080 kPa	1124.2	–
293.15 K, 5030 kPa	1125.1	–
293.15 K, 7010 kPa	1125.9	–
293.15 K, 9950 kPa	1127.2	–
293.15 K, 14850 kPa	1129.3	–
293.15 K, 19770 kPa	1131.3	–
293.15 K, 24660 kPa	1133.3	–
293.15 K, 29510 kPa	1135.2	–
293.15 K, 34610 kPa	1137.2	–
293.15 K, 39370 kPa	1139.1	–
293.15 K, 44320 kPa	1141	–
293.15 K, 49130 kPa	1142.8	–
293.15 K, 54050 kPa	1144.6	–
293.15 K, 59060 kPa	1146.4	–
293.15 K, 63780 kPa	1148	–
293.35 K, 240 kPa	–	46.83 mPa·s [middle of 4 runs]
293.35 K, 1160 kPa	–	47.82 mPa·s
293.35 K, 1200 kPa	–	47.73 mPa·s
293.35 K, 1230 kPa	–	47.49 mPa·s
293.35 K, 1240 kPa	–	47.46 mPa·s and 47.21 mPa·s and 47.42 mPa·s
293.35 K, 2170 kPa	–	48.09 mPa·s
293.35 K, 2200 kPa	–	47.9 mPa·s
293.35 K, 2220 kPa	–	47.44 mPa·s
293.35 K, 2270 kPa	–	47.58 mPa·s
293.35 K, 5010 kPa	–	49.43 mPa·s
293.35 K, 5030 kPa	–	49.23 mPa·s
293.35 K, 5040 kPa	–	49.42 mPa·s
293.35 K, 10520 kPa	–	51.72 mPa·s
293.35 K, 10530 kPa	–	51.62 mPa·s
293.35 K, 10540 kPa	–	51.26 mPa·s
293.35 K, 10620 kPa	–	51.34 mPa·s
293.35 K, 10630 kPa	–	51.5 mPa·s
293.35 K, 20180 kPa	–	56.36 mPa·s
293.35 K, 20210 kPa	–	56.39 mPa·s and 56.29 mPa·s and 56.71 mPa·s
293.35 K, 29650 kPa	–	61.22 mPa·s
293.35 K, 29660 kPa	–	61.45 mPa·s
293.35 K, 62400 kPa	–	81.01 mPa·s
293.35 K, 62810 kPa	–	81.71 mPa·s
293.35 K, 63230 kPa	–	82.04 mPa·s
303 K, 190 kPa	–	28.88 mPa·s [middle of 5 runs]
303 K, 330 kPa	–	28.5 mPa·s and 29.08 mPa·s
303 K, 340 kPa	–	29.02 mPa·s
303 K, 1210 kPa	–	29.06 mPa·s
303 K, 1220 kPa	–	29.35 mPa·s and 29.62 mPa·s
303 K, 2000 kPa	–	29.4 mPa·s
303 K, 2020 kPa	–	29.29 mPa·s
303 K, 2030 kPa	–	29.32 mPa·s
303 K, 2100 kPa	–	29.31 mPa·s
303 K, 2150 kPa	–	29.15 mPa·s
303 K, 5250 kPa	–	30.07 mPa·s
303 K, 5270 kPa	–	30.07 mPa·s
303 K, 5280 kPa	–	30.31 mPa·s
303 K, 10160 kPa	–	31.63 mPa·s
303 K, 10170 kPa	–	31.41 mPa·s
303 K, 10190 kPa	–	31.65 mPa·s
303 K, 10210 kPa	–	31.52 mPa·s
303 K, 10220 kPa	–	31.49 mPa·s and 31.52 mPa·s
303 K, 20290 kPa	–	34.2 mPa·s
303 K, 20300 kPa	–	34.25 mPa·s
303 K, 20320 kPa	–	34.32 mPa·s
303 K, 20330 kPa	–	34.25 mPa·s and 34.3 mPa·s
303 K, 30260 kPa	–	37.03 mPa·s and 37.15 mPa·s and 37.36 mPa·s
303 K, 30270 kPa	–	37 mPa·s
303 K, 50510 kPa	–	43.39 mPa·s
303 K, 50590 kPa	–	43.57 mPa·s
303 K, 50660 kPa	–	43.63 mPa·s
303 K, 64010 kPa	–	47.91 mPa·s
